From patent US20230055237A1, “COMPOUNDS AND METHODS FOR THE TREATMENT OF CYSTIC FIBROSIS” (Flatley Discovery Lab, LLC, priority 2019, published 2023)

Target: T1, CFTR (Homo sapiens, UniProt P13569, DEL508-508)
T1 construct: Primary CF airway epithelial cells were obtained from the UNC Cystic Fibrosis Tissue Procurement and Cell Culture Core; host or cells: primary CF airway epithelial cells, differentiated at the air-liquid interface
Experiment: Equivalent current assay in primary CF airway epithelial cells (NAUC, combination with 1st site corrector FDL169 or VX-809)
Format: cell-based
Settings: 37° C., 24 h

[1] = test compound 1 μM in combination with 1st site corrector VX-809 (3 μM)
[2] = test compound 3 μM in combination with 1st site corrector VX-809 (3 μM)
[3] = test compound 10 μM in combination with 1st site corrector VX-809 (3 μM)
[4] = test compound 1 μM in combination with 1st site corrector FDL169 (3 μM)
[5] = test compound 3 μM in combination with 1st site corrector FDL169 (3 μM)

T1 sequence (P13569 with tags, fused parts or gaps DEL508-508): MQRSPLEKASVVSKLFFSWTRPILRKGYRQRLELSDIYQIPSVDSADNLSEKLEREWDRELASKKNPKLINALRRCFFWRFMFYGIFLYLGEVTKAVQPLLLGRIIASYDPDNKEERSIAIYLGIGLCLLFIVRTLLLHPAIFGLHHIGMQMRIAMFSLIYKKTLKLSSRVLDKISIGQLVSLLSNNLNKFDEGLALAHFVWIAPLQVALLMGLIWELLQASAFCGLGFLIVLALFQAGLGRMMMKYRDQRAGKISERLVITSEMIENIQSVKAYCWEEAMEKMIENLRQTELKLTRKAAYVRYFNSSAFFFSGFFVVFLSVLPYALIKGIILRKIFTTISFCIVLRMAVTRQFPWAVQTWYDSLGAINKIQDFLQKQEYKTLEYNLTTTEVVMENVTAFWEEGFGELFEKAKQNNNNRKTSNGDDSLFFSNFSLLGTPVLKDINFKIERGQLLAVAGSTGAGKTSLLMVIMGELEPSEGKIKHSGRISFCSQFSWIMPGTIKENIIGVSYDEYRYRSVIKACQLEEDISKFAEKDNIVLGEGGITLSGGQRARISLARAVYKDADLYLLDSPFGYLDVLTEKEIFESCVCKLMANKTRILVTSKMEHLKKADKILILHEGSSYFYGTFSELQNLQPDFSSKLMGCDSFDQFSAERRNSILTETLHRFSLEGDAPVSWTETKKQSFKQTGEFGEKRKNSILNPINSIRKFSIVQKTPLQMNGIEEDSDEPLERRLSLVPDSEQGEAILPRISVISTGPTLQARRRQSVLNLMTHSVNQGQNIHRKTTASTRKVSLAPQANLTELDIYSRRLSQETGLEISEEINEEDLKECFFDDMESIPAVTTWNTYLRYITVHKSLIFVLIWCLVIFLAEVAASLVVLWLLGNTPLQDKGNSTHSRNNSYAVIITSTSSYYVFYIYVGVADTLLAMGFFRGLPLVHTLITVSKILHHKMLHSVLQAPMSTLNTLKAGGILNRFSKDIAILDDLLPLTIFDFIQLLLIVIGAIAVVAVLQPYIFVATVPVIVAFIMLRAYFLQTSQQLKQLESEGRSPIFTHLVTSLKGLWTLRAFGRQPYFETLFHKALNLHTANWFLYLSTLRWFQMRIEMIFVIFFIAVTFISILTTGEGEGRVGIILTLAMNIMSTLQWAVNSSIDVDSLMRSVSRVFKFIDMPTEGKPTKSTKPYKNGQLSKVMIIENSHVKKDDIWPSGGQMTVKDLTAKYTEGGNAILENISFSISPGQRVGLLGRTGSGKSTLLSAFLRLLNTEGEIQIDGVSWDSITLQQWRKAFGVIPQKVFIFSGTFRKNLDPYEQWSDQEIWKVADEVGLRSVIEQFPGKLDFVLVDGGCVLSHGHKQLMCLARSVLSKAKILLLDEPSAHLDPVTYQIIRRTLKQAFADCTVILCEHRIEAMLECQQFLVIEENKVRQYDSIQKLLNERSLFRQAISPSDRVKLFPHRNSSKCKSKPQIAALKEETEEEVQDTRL

| Compound | Nauc @ 1 μM [1] | Nauc @ 3 μM [2] | Nauc @ 10 μM [3] | Nauc @ 1 μM [4] | Nauc @ 3 μM [5] | Nauc @ 10 μM (test compound 10 μM in combination with 1st site corrector FDL169 (3 μM)) |
| --- | --- | --- | --- | --- | --- | --- |
| CC(=O)NNC(=O)[C@H]1[C@@H](C(=O)Nc2cc(Cl)cc(Cl)c2)[C@H]2CCCN2[C@]12C(=O)Nc1c(Cl)cc(Cl)cc12 (single isomer, unassigned) [Example 242, (1′R,2′S,7a′R)-2′-(2-acetylhydrazine-1-carbonyl)-5,7-dichloro-N-(3,5-dichlorophenyl)-2-oxo-1′,2′,5′,6′,7′,7a′-hexahydrospiro[indoline-3,3′-pyrrolizine]-1-carboxamide] | + (NAUC “+” refers to an observed NAUC <140% of positive control) | + (NAUC “+” refers to an observed NAUC <140% of positive control) | + (NAUC “+” refers to an observed NAUC <140% of positive control) | – | – | – |
| O=C(Nc1cncc(C(F)(F)F)n1)C1C2C[C@H](C(F)(F)F)CN2C2(C(=O)Nc3c(Cl)cc(Cl)cc32)C1C(=O)O (stereo partly drawn) [Example 18] | – | + (NAUC “+” refers to an observed NAUC <140% of positive control) | +++ (NAUC “+++” refers to an observed NAUC>170% of positive control) | – | – | – |
| CN(C(=O)[C@H]1[C@H]2CC(F)(F)CN2[C@]2(C(=O)Nc3c(Cl)cc(Cl)cc32)[C@H]1C(=O)O)c1cccc(C(F)(F)F)n1 [Example 114] | +++ (NAUC “+++” refers to an observed NAUC>170% of positive control) | ++ (NAUC “++” refers to an observed NAUC 170-140% of positive control) | +++ (NAUC “+++” refers to an observed NAUC>170% of positive control) | – | – | – |
| COC(=O)[C@@]1(C)[C@@H](C(=O)N(C)c2cc(Cl)cc(Cl)c2)[C@H]2CC(F)(F)CN2C12C(=O)Nc1c(Cl)cc(Cl)cc12 (stereo partly drawn) [Example 282] | – | – | – | + (NAUC “+” refers to an observed NAUC <140% of positive control) | + (NAUC “+” refers to an observed NAUC <140% of positive control) | – |
| O=C(Nc1n[nH]c2ccc(F)cc12)[C@H]1[C@H]2CC(F)(F)CN2[C@]2(C(=O)Nc3c(Cl)cc(Cl)cc32)[C@H]1C(=O)O [Example 130] | + (NAUC “+” refers to an observed NAUC <140% of positive control) | + (NAUC “+” refers to an observed NAUC <140% of positive control) | – | – | – | – |
| CN(C(=O)[C@H]1[C@H]2CC(F)(F)CN2[C@]2(C(=O)Nc3c(Cl)cc(Cl)cc32)[C@H]1C(=O)O)c1cc(Cl)cc(Cl)c1 [Example 169] | – | – | – | ++ (NAUC “++” refers to an observed NAUC 170-140% of positive control) | +++ (NAUC “+++” refers to an observed NAUC>170% of positive control) | +++ (NAUC “+++” refers to an observed NAUC>170% of positive control) |
| Cc1nn(C)cc1N(CC1CC1)C(=O)[C@H]1[C@H]2CC(F)(F)CN2[C@]2(C(=O)Nc3c(Cl)cc(Cl)cc32)[C@H]1C(=O)O [Example 165] | – | – | – | + (NAUC “+” refers to an observed NAUC <140% of positive control) | + (NAUC “+” refers to an observed NAUC <140% of positive control) | – |
| CC(C)(C)CN(C(=O)[C@H]1[C@@H](C(=O)O)C2(C(=O)Nc3c(Cl)cc(Cl)cc32)N2CCC[C@@H]12)c1cc(Cl)cc(Cl)c1 (single isomer, unassigned) [Example 82.6a, (1′R,2′S,7a′R)-5,7-dichloro-1-((3,5-dichlorophenyl)(neopentyl)carbamoyl)-2-oxo-1′,2′,5′,6′,7′,7a′-hexahydrospiro[indoline-3,3′-pyrrolizine]-2′-carboxylic acid] | – | – | – | +++ (NAUC “+++” refers to an observed NAUC>170% of positive control) | ++ (NAUC “++” refers to an observed NAUC 170-140% of positive control) | – |
| CC1(C)CC2C(C(=O)Nc3cc(Cl)cc(Cl)c3)C(C(=O)O)C3(C(=O)Nc4c(Cl)cc(Cl)cc43)N2C1 (stereo not drawn) [Example 13] | – | +++ (NAUC “+++” refers to an observed NAUC>170% of positive control) | +++ (NAUC “+++” refers to an observed NAUC>170% of positive control) | – | – | – |
